Results reported in PubChem BioAssay (NCI).
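Each compound was tested at five concentrations against cells in 96-well plates for 48 hours. GI50 = concentration required for 50% inhibition of growth. TGI marks complete inhibition of growth.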 Where a SMILES comes first, the peptide text is derived from it. The star is where a group is joined. Fmoc = O=C(OCC1c2ccccc2-c2ccccc21)*; OBn = c1ccc(CO*)cc1; tBu = CC(C)(C)*

Tests used:
Assay in all cases: NCI anticancer screen, dose series, 48 h
BT-549 breast = test system: BT-549 breast
EKVX NSCLC = test system: EKVX NSCLC
HT29 colon = test system: HT29 colon
MOLT-4 leukemia = test system: MOLT-4 leukemia
NCI-H226 lung = test system: NCI-H226 lung
NCI-H460 lung = test system: NCI-H460 lung
OVCAR-4 ovarian = test system: OVCAR-4 ovarian
OVCAR-5 ovarian = test system: OVCAR-5 ovarian
UO-31 renal = test system: UO-31 renal

SMILES	TGI (BT-549 breast)	TGI (EKVX NSCLC)	TGI (HT29 colon)	TGI (MOLT-4 leukemia)	TGI (NCI-H226 lung)	TGI (NCI-H460 lung)	TGI (OVCAR-4 ovarian)	TGI (OVCAR-5 ovarian)	TGI (UO-31 renal)	GI50 (BT-549 breast)
CN(Cc1ccccc1)C(=S)S	> 100 µM	> 100 µM	> 100 µM	84.6 µM	> 100 µM	> 100 µM	> 100 µM	> 100 µM	77.8 µM	
CCOC(=O)CCC(C(=O)OCC)n1nnc2cc(Nc3c(C)[n+]([O-])c4cc(Cl)ccc4[n+]3[O-])ccc21 (stereo not given)	> 100 µM	71.9 µM	> 100 µM	> 100 µM	> 100 µM	> 100 µM	> 100 µM	> 100 µM	> 100 µM	
NCC1OC(OC2C(N)CC(N)C(O)C2OC2OC(CO)C(O)C2O)C(N)C(O)C1O (stereo not given)	> 100 µM	> 100 µM	> 100 µM	> 100 µM	> 100 µM	> 100 µM	> 100 µM	> 100 µM	> 100 µM	
N=C(N)c1ccc(N=Nc2c(O)c(C(=O)Nc3ccccc3)cc3ccccc23)cc1	> 100 µM	41.9 µM	42.4 µM	8.33 µM	> 100 µM	> 75.3 µM	33.1 µM	> 62.4 µM	> 100 µM	
CC1CC[C@@]2(OC1)OC1C[C@H]3[C@@H]4CC=C5C[C@@H](OC6OC(CO)C(OC7OC(CO)C(O)C(O)C7O)C(O)C6OC6OC(C)C(O)C(O)C6O)CC[C@]5(C)[C@H]4CC[C@]3(C)C1[C@@H]2C (stereo not given in full)	0.848 µM	1.13 µM	0.951 µM		1.67 µM	1.76 µM	5.03 µM	4.58 µM	0.887 µM	
CSC1=C(C)C(/C=N/Nc2ccc([N+](=O)[O-])cc2)=C(C)N(c2ccccc2)S1(=O)=O	> 100 µM	> 100 µM	> 100 µM	> 100 µM	> 100 µM	> 100 µM	> 100 µM	> 100 µM	> 100 µM	
COC(=O)c1sc2c(Cl)c(Cl)sc2c1Cl	> 100 µM	> 100 µM	> 100 µM	> 100 µM	> 100 µM	> 100 µM	> 100 µM	> 100 µM	> 100 µM	
COC(=O)[C@]1(c2cc3ccccc3[nH]2)CC2CNC1C1OC(C)(C)OC21 (stereo not given in full)	> 100 µM	> 100 µM	> 100 µM	> 100 µM	> 100 µM	> 100 µM	> 100 µM	> 100 µM	> 100 µM	
Cc1c(-c2ccccc2)oc(=O)c2ccccc12	39.2 µM	60.9 µM	34.6 µM	60.1 µM	40.3 µM	> 100 µM	71.4 µM	80.9 µM	43.7 µM	
O=C(Nc1nnc(-c2ccccc2)o1)C(SC(=S)N1CCCC1)c1ccccc1 (stereo not given)	90 µM	68 µM	> 100 µM	> 100 µM	> 100 µM	62.3 µM	> 100 µM	> 100 µM	57.8 µM	
C=C(CCC(=O)N(CCc1c[nH]c2ccccc12)C(=O)c1ccccc1CSCC)C(=O)OC	> 100 µM	> 100 µM	> 100 µM	> 100 µM	> 100 µM	> 100 µM	> 100 µM	> 100 µM	> 100 µM	
CC1=NN(c2cc(Cl)c(S(=O)(=O)O)cc2Cl)C2(C1)C(Cl)C(=O)N2c1nc2ccccc2s1 (stereo not given)	> 100 µM	> 100 µM	> 100 µM	> 100 µM	> 100 µM	> 100 µM	> 100 µM	> 100 µM	76.5 µM	
CCOC(=O)c1c(-c2ccc(Cl)cc2)c(C#N)c(=S)n(C2OC(COC(C)=O)C(OC(C)=O)C(OC(C)=O)C2OC(C)=O)c1C (stereo not given)	> 100 µM	> 100 µM	> 100 µM	> 100 µM	> 100 µM	> 100 µM	> 100 µM	> 100 µM		> 100 µM
CN=C1C=C(/N=C2/C=C(N/C(=C\C#N)C(C)(C)O)OC2(C)C)OC1(C)C	> 77.8 µM	> 100 µM	> 100 µM	> 100 µM	> 100 µM	> 100 µM	> 100 µM	> 100 µM	82.3 µM	
CC1CC(C)(C)CC(OCCN2CCCCC2)(c2ccccc2)C1 (stereo not given)	27.8 µM	19.5 µM	9.92 µM		38.3 µM	17.5 µM	24 µM	18.2 µM	20.6 µM	
CCOC(=O)/C=C(/OCC)[C@@H]1C(C(=O)c2ccc(Cl)cc2)[C@@H]1/C(=C\C(=O)OCC)OCC (stereo not given in full)	> 100 µM	> 100 µM	> 100 µM	> 24.4 µM	> 100 µM	> 100 µM	> 100 µM	> 100 µM	> 91 µM	
C[C@]12CC[C@H]3[C@@H](CCC4=C/C(=N/OCCN5CCCCC5)CC[C@@]43C)[C@@H]1CC[C@@H]2O	36 µM	> 100 µM	15.2 µM	20.9 µM	48.4 µM		58.9 µM	40.7 µM	24.7 µM	
Cn1c(COC(=O)NC2CCCCC2)c(COC(=O)NC2CCCCC2)c2ccc3ccccc3c21	> 100 µM	> 100 µM	> 100 µM	> 100 µM	95.8 µM	13.5 µM	> 100 µM	> 100 µM	> 100 µM	
O=c1[nH]c(NCCCCCO)nc2nc[nH]c12	> 100 µM	> 100 µM	> 100 µM	> 100 µM	> 100 µM	> 100 µM	> 100 µM	> 100 µM	> 100 µM	
N#CC(c1cc(Cl)ncn1)c1nc2cc(C(F)(F)F)ccc2s1 (stereo not given)	9.5 µM	32.3 µM	12.3 µM	> 100 µM	92 µM	> 100 µM	19.5 µM	34.3 µM	17.8 µM	
CC(OC(C)(C)C)C(NC(=O)OCC1c2ccccc2-c2ccccc21)C(=O)NC(Cc1ccccc1)C(=O)OCc1ccccc1 (stereo not given) (Fmoc-Thr(tBu)-Phe-OBn; configuration not given here)	> 100 µM	> 100 µM	> 100 µM	> 100 µM	> 100 µM	> 100 µM	> 100 µM	> 100 µM	> 100 µM	
CC(=O)CCN1CC2CN=NC2(C#N)C1 (stereo not given)	> 100 µM	> 100 µM	> 100 µM	> 56.7 µM	> 70 µM	> 100 µM	> 100 µM	> 100 µM	> 100 µM	
